Assay results published in patent publication US9371331B2, “Modulators of methyl modifying enzymes, compositions and uses thereof” (Constellation Pharmaceuticals, Inc., priority 2012, dated 2016).
Like-named read-outs stand apart in the source and are kept apart here.

Key:
[1] = molecular target: Y641N EZH2 (Homo sapiens, UniProt Q15910, Y641N); test: Y641N EZH2 assay: as EZH2 assay, with reconstituted H3K27Me2 oligonucleosomes as substrate; assay type: biochemical
[2] = molecular target: EZH2 (rPRC2) (Homo sapiens, UniProt Q15910); test: EZH2 assay: rPRC2, biotinylated oligonucleosomes, 3H SAM methyl transfer (FlashPlate scintillation); assay type: biochemical; conditions: biotinylated oligonucleosome substrate
[3] = system: H3K27me3 mark in HeLa cells; test: H3K27me3 MSD Hela Assay; assay type: cell-based; conditions: read-out: H3K27me3_MSD_HeLa_ (EC50)
Experimental: Trypsinized HeLa cells were counted and diluted in 10% DMEM (Life Technologies, Cat. #10569) to 5000 cells/75 μL. Seventy-five […] of cells were place in each well of a 96-well flat-bottomed plate and incubated at 37° C. for 4 hours. Twenty-five μL of test compound (at various concentrations) was added to the cells and incubation continued at 37° C. for 96 hours. Media was then removed and the cells rinsed once with ice cold PBS. Forty μL of ice-cold MSD Buffer AT (10 mM HEPES, pH 7.9, 5 mM MgCl2, 0.25M sucrose, Benzonase (1:10000), 1% Triton X-100 supplemented with fresh 1× Protease Inhibitor cocktail and 1 mM 4-(2-Aminoethyl)benzenesulfonyl fluoride hydrochloride (AEBSF)) was added to each well and the plates placed on ice for 30 minutes. Ten μL of 5M NaCl was then added to each well and incubation on ice continued for another 15 minutes. The material in each well was suspended pipetting up and down and then transferred to a new 96 well plate. The emptied wells were rinsed with 150 uL ice-cold 20 mM Tris pH 7.5, 1 mM EDTA, 1 mM EGTA, supplemented with fresh 1× Protease Inhibitor cocktail and 1 mM AEBSF (“NO salt NO detergent buffer) and transferred to the respective wells in the new plate. Three hundred μL of NO Salt NO detergent buffer was then added to each well of lysates and the plates frozen at −80° C.
On the same day, an appropriate number of MSD standard bind 96-well plates were coated with 30 μL/well of total H3 capture antibody (Millipore. Cat #MAB3422) at 1 μg/mL concentration in PBS. The antibody solution was evenly distributed first by tapping gently on the sides of the plates and then by shaking the plates for a few minutes at 1000 rpm. Antibody coated plates were stored at 4° C. overnight.
The next day the lysates are thawed to RT. The antibody coated MSD plates are washed 3× with TBS-T (Tris-buffered saline (Fisher Scientific, Cat #BP2471-1)+0.2% Tween-20). One-hundred fifty μL of 5% Blocker A in TBS-T is added to each well. The wells are covered and shaken on a shaker at RT for one hour. The Blocker A step is repeated a second time. After removing the blocker, 25 μL of cell lysate is transferred into each antibody coated well. The plates are shaken for 2 hours at RT, the lysate removed and the plates again washed with Blocker A in TBS-T. Twenty-five μL of appropriate freshly prepared antibody mix (including both primary and secondary antibodies) is added to each well and the plates shaken for 1 hour at RT.
Both H3 antibodies were obtained from Cell Signalling (Cat #s 4499 and 9733). The goat anti-rabbit antibody was obtained from Meso-Scale Discovery (Cat #R32AB-1).
The antibody mix was then removed and the wells washed with Blocker A. One hundred-fifty μL of freshly prepared 1×MSD Read Buffer (Meso-Scale Discovery; Cat #R927C-2) was then added to each well and the plates read on a MSD Sector 2400 Plate Reader.
Data was analyzed using Assay Assistant (Constellation Pharmaceuticals In-house product) and Activity Base (IDBS Ltd, Surrey, UK) template. Data files were imported to Assay Assistant and assay conditions were specified. A unique Analysis ID was created and the data files exported to Activity Base. An analysis template was created on Activity Base to measure dose-dependent inhibition of H3K27me3 mark and cell viability respectively. Readout of DMSO wells were used to normalize the data. Resulting curves were fitted using Activity base software Model 205 (IDBS Ltd. Surrey, UK). The data was checked for quality, validated and integrated in excel format using SARview (IDBS Ltd, Surrey, UK).

[4] = Y641N EZH2 IC50, Y641N mutant EZH2, H3K27Me2 oligonucleosome substrate
[5] = EZH2 IC50, wild-type EZH2 (rPRC2)
[6] = Y641N mutant EZH2, H3K27Me2 oligonucleosome substrate, read-out: Y641N EZH2 IC50
[7] = wild-type EZH2 (rPRC2), read-out: EZH2 IC50
[8] = Homo sapiens, HeLa cells, MSD, 96 hours

Chain of Y641N EZH2 (Q15910 whole entry Y641N): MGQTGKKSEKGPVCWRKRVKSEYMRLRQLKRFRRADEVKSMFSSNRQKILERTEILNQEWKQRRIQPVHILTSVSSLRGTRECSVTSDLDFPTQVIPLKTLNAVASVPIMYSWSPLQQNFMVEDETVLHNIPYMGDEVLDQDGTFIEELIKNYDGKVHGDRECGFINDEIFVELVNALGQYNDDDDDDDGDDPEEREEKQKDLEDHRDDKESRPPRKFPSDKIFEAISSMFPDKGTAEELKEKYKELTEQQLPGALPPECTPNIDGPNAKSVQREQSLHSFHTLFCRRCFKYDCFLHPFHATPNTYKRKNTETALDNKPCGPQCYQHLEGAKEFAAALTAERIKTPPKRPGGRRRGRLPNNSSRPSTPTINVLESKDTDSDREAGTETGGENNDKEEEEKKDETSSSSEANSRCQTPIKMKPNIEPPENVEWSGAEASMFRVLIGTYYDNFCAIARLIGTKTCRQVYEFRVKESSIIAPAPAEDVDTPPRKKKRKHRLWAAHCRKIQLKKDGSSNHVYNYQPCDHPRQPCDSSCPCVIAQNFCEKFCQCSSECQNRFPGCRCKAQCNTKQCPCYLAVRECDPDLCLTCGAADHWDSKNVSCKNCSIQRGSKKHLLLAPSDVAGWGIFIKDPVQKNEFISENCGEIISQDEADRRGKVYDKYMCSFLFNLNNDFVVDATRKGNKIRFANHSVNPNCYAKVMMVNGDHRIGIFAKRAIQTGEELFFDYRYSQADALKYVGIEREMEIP
Chain of Y641N EZH2 (O75530 whole entry partner): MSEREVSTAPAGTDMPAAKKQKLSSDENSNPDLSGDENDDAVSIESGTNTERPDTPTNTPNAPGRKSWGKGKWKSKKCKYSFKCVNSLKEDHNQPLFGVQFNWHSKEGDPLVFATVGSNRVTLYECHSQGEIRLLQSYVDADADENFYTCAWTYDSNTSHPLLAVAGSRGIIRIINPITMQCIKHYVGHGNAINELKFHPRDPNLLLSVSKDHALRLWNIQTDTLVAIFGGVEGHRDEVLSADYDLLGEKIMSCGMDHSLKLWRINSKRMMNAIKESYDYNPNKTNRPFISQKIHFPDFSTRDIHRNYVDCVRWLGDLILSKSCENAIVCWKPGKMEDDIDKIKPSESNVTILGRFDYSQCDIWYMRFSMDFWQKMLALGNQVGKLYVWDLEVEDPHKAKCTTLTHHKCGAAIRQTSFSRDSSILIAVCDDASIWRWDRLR
Chain of Y641N EZH2 (Q15022 whole entry partner): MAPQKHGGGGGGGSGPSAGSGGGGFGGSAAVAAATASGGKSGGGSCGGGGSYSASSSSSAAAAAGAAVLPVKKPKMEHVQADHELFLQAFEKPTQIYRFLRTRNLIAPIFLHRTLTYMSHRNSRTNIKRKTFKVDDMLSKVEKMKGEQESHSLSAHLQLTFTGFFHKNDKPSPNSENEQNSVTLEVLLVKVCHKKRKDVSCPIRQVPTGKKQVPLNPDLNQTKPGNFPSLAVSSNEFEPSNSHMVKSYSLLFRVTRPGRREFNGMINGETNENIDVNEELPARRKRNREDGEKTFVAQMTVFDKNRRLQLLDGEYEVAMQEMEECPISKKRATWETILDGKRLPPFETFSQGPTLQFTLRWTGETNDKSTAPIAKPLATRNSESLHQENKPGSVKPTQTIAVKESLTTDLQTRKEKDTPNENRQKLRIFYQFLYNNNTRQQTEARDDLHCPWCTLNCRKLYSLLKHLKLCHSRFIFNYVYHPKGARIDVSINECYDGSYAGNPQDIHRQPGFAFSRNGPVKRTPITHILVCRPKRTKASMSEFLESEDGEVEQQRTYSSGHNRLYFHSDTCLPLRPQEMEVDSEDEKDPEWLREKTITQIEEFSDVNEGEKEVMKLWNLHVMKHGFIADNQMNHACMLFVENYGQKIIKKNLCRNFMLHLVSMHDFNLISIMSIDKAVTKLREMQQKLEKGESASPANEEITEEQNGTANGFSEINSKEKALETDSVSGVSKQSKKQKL
Chain of EZH2 (rPRC2) (Q15910 whole entry): as the sequence (Q15910 whole entry Y641N) above, with N641Y counted along it
Chain of EZH2 (rPRC2) (O75530 whole entry partner): as the sequence (O75530 whole entry partner) above
Chain of EZH2 (rPRC2) (Q15022 whole entry partner): as the sequence (Q15022 whole entry partner) above

| Compound | IC50 [1, 4] [nM] | IC50 [2, 5] [nM] | EC50 ([3]; Homo sapiens, HeLa, 96 h) [nM] | IC50 [1, 6] [nM] | IC50 [2, 7] [nM] | EC50 [3, 8] [nM] | EC50 ([3]; HeLa cells, MSD, 96 hours) [nM] |
| --- | --- | --- | --- | --- | --- | --- | --- |
| COc1cc(C)[nH]c(=O)c1CNC(=O)c1c(C)n(C2CCCC2)c2ccccc12 [Compound 324, 1-cyclopentyl-N-((4-methoxy-6-methyl-2-oxo-1,2-dihydropyridin-3-yl)methyl)-2-methyl-1H-indole-3-carboxamide] | 100 to 1000 | < 100 | 2000 to 10000 | – | – | – | – |
| COc1cc(C)[nH]c(=O)c1CNC(=O)c1c(C)n(C(C)C2CCN(C(=O)OC(C)(C)C)CC2)c2ccccc12 (single isomer, unassigned) [Compound 327, (R or S)-tert-butyl 4-(1-(3-((4-methoxy-6-methyl-2-oxo-1,2-dihydropyridin-3-yl)methylcarbamoyl)-2-methyl-1H-indol-1-yl)ethyl)piperidine-1-carboxylate] | < 100 | < 100 | < 400 | – | – | – | – |
| COc1cc(C)[nH]c(=O)c1CNC(=O)c1c(C)n(C(C)C2(C)COC2)c2ccccc12 (racemic) [Compound 291] | 100 to 1000 | < 100 | 400 to 2000 | – | – | – | – |
| Cc1ccc(C)c(-n2c(C)c(C(=O)NCc3c(C)cc(C)[nH]c3=O)c3ccccc32)c1 [Compound 191, N-((4,6-dimethyl-2-oxo-1,2-dihydropyridin-3-yl)methyl)-1-(2,5-dimethylphenyl)-2-methyl-1H-indole-3-carboxamide] | – | – | – | < 100 | < 100 | 2000 to 10000 | – |
| COC[C@@H](C)n1c(C)c(C(=O)NCc2c(OC)cc(C)[nH]c2=O)c2cncnc21 [Compound 303, (R)-N-((4-methoxy-6-methyl-2-oxo-1,2-dihydropyridin-3-yl)methyl)-7-(1-methoxypropan-2-yl)-6-methyl-7H-pyrrolo[2,3-d]pyrimidine-5-carboxamide] | 100 to 1000 | < 100 | 400 to 2000 | – | – | – | – |
| COc1cncc(C(C)n2c(C)c(C(=O)NCc3c(C)cc(C)[nH]c3=O)c3cccnc32)c1 (racemic) [Compound 215, (±)-N-((4,6-dimethyl-2-oxo-1,2-dihydropyridin-3-yl)methyl)-1-(1-(5-methoxypyridin-3-yl)ethyl)-2-methyl-1H-pyrrolo[2,3-b]pyridine-3-carboxamide] | 1000 to 10000 | 100 to 1000 | 2000 to 10000 | – | – | – | – |
| Cc1cc(C)c(CNC(=O)c2c(C)n(C(C)c3ccccc3)c3cnccc23)c(=O)[nH]1 (racemic) [Compound 203, (±)-N-((4,6-dimethyl-2-oxo-1,2-dihydropyridin-3-yl)methyl)-2-methyl-1-(1-phenylethyl)-1H-pyrrolo[2,3-c]pyridine-3-carboxamide] | 100 to 1000 | < 100 | 2000 to 10000 | – | – | – | – |
| COc1ccc2c(C(=O)NCc3c(OC)cc(C)[nH]c3=O)c(C)n(C(C)C3CCOCC3)c2c1 (single isomer, unassigned) [Compound 321, (R or S)-6-methoxy-N-((4-methoxy-6-methyl-2-oxo-1,2-dihydropyridin-3-yl)methyl)-2-methyl-(1-(tetrahydro-2H-pyran-4-yl)ethyl)-1 H-indole-3-carboxamide] | < 100 | < 100 | < 400 | – | – | – | – |
| (±)-1-(1-(3-cyanophenyl)ethyl)-N-(4,6-dimethyl-2-oxo-1,2-dihydropyridin-3-yl)-2-methyl-1H-indole-3-carboxamide [Compound 175] | – | – | – | < 100 | < 100 | – | 400 to 2000 |
| Cc1cc(C)c(CNC(=O)c2c(C)n(C(C)c3cccc(Br)c3)c3ccccc23)c(=O)[nH]1 (racemic) [Compound 171, (±)-1-(1-(3-bromophenyl)ethyl)-N-((4,6-dimethyl-2-oxo-1,2-dihydropyridin-3-yl)methyl)-2-methyl-1H-indole-3-carboxamide] | < 100 | < 100 | 2000 to 10000 | – | – | – | – |
| Cc1cc(C)c(CNC(=O)c2c(C)n(C(C)c3ccccc3)c3ncccc23)c(=O)[nH]1 (single isomer, unassigned) [Compound 116, N-((4,6-dimethyl-2-oxo-1,2-dihydropyridin-3-yl)methyl)-2-methyl-1-(1-phenylethyl)-1H-pyrrolo[2,3-b]pyridine-3-carboxamide] | 100 to 1000 | < 100 | 400 to 2000 | – | – | – | – |
| COc1cc(C)[nH]c(=O)c1CNC(=O)c1c(C)n([C@H](C)[C@H](OC)C2CC2)c2ncccc12 (single isomer, unassigned) [Compound 286, 1-((1R or S, 2R or S)-1-cyclopropyl-1-methoxypropan-2-yl)-N-((4-methoxy-6-methyl-2-oxo-1,2-dihydropyridin-3-yl)methyl)-2-methyl-1H-pyrrolo[2,3-b]pyridine-3-carboxamide] | 100 to 1000 | < 100 | 400 to 2000 | – | – | – | – |
| Cc1ccc(C(C)n2c(C)c(C(=O)NCc3c(C)cc(C)[nH]c3=O)c3ccccc32)cc1 (racemic) [Compound 172, (±)-N-((4,6-dimethyl-2-oxo-1,2-dihydropyridin-3-yl)methyl)-2-methyl-1-(1-(p-tolyl)ethyl)-1H-indole-3-carboxamide] | 100 to 1000 | < 100 | 2000 to 10000 | – | – | – | – |
| COCC(C)n1c(C)c(C(=O)NCc2c(OC)cc(C)[nH]c2=O)c2cc(F)ccc21 (racemic) [Compound 230, (±)-5-fluoro-N-((4-methoxy-6-methyl-2-oxo-1,2-dihydropyridin-3-yl)methyl)-1-(1-methoxypropan-2-yl)-2-methyl-1H-indole-3-carboxamide] | 100 to 1000 | < 100 | 400 to 2000 | – | – | – | – |
| COc1cc(C)[nH]c(=O)c1CNC(=O)c1c(C)n(C(C)C2CCCN(S(C)(=O)=O)C2)c2ccccc12 (stereo not drawn) [Compound 318] | < 100 | < 100 | > 10000 | – | – | – | – |
| Cc1cc(C)c(CNC(=O)c2c(C)n(C(C)c3ccc(F)cc3)c3ccccc23)c(=O)[nH]1 (racemic) [Compound 166, (±)-N-((4,6-dimethyl-2-oxo-1,2-dihydropyridin-3-yl)methyl)-1-(1-(4-fluorophenyl)ethyl)-2-methyl-1H-indole-3-carboxamide] | 100 to 1000 | < 100 | 2000 to 10000 | – | – | – | – |
| Cc1cc(C)c(CNC(=O)c2c(C)n([C@H](C)c3ccccc3)c3ncncc23)c(O)n1 [Compound 395, (R)—N-((2-hydroxy-4,6-dimethylpyridin-3-yl)methyl)-6-methyl-7-(1-phenylethyl)-7H-pyrrolo[2,3-d]pyrimidine-5-carboxamide] | 100 to 1000 | < 100 | 2000 to 10000 | – | – | – | – |
| COCC(C)n1c(C)c(C(=O)NCc2c(OC)cc(C)[nH]c2=O)c2ccc(F)cc21 (racemic) [Compound 231, (±)-6-fluoro-N-((4-methoxy-6-methyl-2-oxo-1,2-dihydropyridin-3-yl)methyl)-1-(1-methoxypropan-2-yl)-2-methyl-1H-indole-3-carboxamide] | 100 to 1000 | < 100 | 400 to 2000 | – | – | – | – |
| Cc1cc(C)c(COC(=O)c2c(C)n(C3CCc4ccccc43)c3ncccc23)c(=O)[nH]1 (racemic) [Compound 201, (±)-(4,6-dimethyl-2-oxo-1,2-dihydropyridin-3-yl)methyl 1-(2,3-dihydro-1H-inden-1-yl)-2-methyl-1H-pyrrolo[2,3-b]pyridine-3-carboxylate] | – | – | – | 100 to 1000 | < 100 | 400 to 2000 | – |
